For 40 compounds, EC50 results are on record in patent publication US9233961B2, “Compounds and compositions for the treatment of parasitic diseases” (Novartis AG, priority 2013, dated 2016).

For orientation: EC50 means the concentration needed to bring the measured effect to its halfway point.

In experiment [1] the test system is L. donovani HU3 strain in mouse peritoneal macrophages. As to the kind of experiment: Assay for proliferation of Leishmania parasites in mouse peritoneal macrophages. The experiment is classed as cell-based, Leishmania donovani. To be noted: Leishmania donovani, Peritoneal macrophage, read-out: L. donavani Macrophage EC50. The essentials: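 BALB/c peritoneal macrophages infected 24 h with L. donovani HU3 amastigotes taken from spleens of mice infected 9–11 weeks, then treated with compound for 5 days at 37° C, 5% CO2. Parasite nuclei counted by SYBR Green imaging after fixation; EC50 from percentage inhibition.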

Experiment [2] relates to Leishmania donovani axenic amastigote parasites. Put plainly: Leishmania donovani axenic amastigote proliferation assay. The experiment is classed as cell-based. To be noted: axenic amastigotes in vitro, read-out: L. donovani amastigotes EC50. The method, boiled down:
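L. donovani axenic amastigotes (9600/well) in RPMI 1640 with 20% heat-inactivated FBS, folic acid, adenosine, glucose and 25 mM MES, pH 5.5, were incubated with compounds for 2 days at 37 °C, 5% CO2. Viability read by CellTiter-Glo luminescence; EC50 calculated.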

In experiment [3] the test system is Trypanosoma brucei Lister 427 strain bloodstream form. Put plainly: Assay for proliferation of kinetoplastid parasite Trypanosoma brucei. The class given is cell-based. Particulars: Lister 427 bloodstream form, 48 hours, read-out: T. brucei EC50. The text has this:
Assay for Proliferation of Kinetoplastid Parasite Trypanosoma brucei.
The proliferation is quantified by the addition of Cell Titer Glo (Promega®) a luminescent cell viability assay that measures the number of viable cells in culture based on the quantification of cellular ATP amount, which is an indicator of metabolically active cells.
The following assay illustrates the invention without in any way limiting the scope of the invention. This parasite proliferation assay measures the increase in parasite growth using an assay that measures ATP activity, Cell Titer Glo®.
Trypanosoma brucei Lister 427 strain is grown in HMI-9 Trypanosome media for T. brucei bloodstream form. 30 μl of HMI-9 media is dispensed into 384 well assay plates. 200 nl of compounds of the invention (in DMSO), including anti-trypanosome controls (Pentamidine and suramin), are then transferred into the assay plates, as well as DMSO alone to serve as a negative control for inhibition. Then 25 μl of a suspension of T. brucei culture in HMI-9 media is dispensed into the assay plates. The final concentration of parasites in culture corresponds to 1.7% of 0.5 uM ATP activity with Cell Titer Glo® in HMI-9 media. The plates are placed in a 37° C. incubator for 48 hours in an atmospheric environment containing 5% CO2. 40 μl of Cell Titer Glo® is dispensed into the plates. The plates are then read for luminescence. The percentage inhibition of 50%, EC50, is calculated for each compound.

On to `Cc1cnc2nc(-c3cc(NC(=O)c4ncc[nH]4)ccc3Cl)[nH]c2c1` [Compound 95], for which the figures for the EC50 in experiment [1], in experiment [2] and in experiment [3] were greater than 50 µM, greater than 25 µM and greater than 14.4 µM, respectively.
With `Cc1cnc2nc(-c3cc(NC(=O)Cc4ccc(C(F)(F)F)cc4)ccc3Cl)[nH]c2c1` [Compound 96], the EC50 in experiment [1] was 20.7 µM; in experiment [2], greater than 25 µM; in experiment [3], 8.9 µM.
For `Cc1cnc2nc(-c3cc(NC(=O)Cc4cccnc4)ccc3Cl)[nH]c2c1` [Compound 97], the EC50 was greater than 50 µM in experiment [1], greater than 25 µM in experiment [2] and greater than 18.7 µM in experiment [3].
Taken in the same sequence, the figures for `Cc1cnc2nc(-c3cc(NC(=O)c4nnc(C)o4)ccc3Cl)[nH]c2c1` [Compound 106] were greater than 50 µM, greater than 25 µM and 13.3 µM.
Taken in the same sequence, the figures for `Cc1cnc2nc(-c3cc(NC(=O)c4csc(C)n4)ccc3Cl)[nH]c2c1` [Compound 107] were 21.5 µM, 5.5 µM and 0.51 µM.
Taken in the same sequence, the figures for `COc1ccccc1C(=O)Nc1ccc(Cl)c(-c2nc3ncc(C)cc3[nH]2)c1` [Compound 108] were 16.3 µM, greater than 25 µM and 8.3 µM.
With `Cc1cnc2nc(-c3cc(NC(=O)c4ccc(N5CCOCC5)cc4)ccc3Cl)[nH]c2c1` [Compound 109], the half-maximal effective concentration (EC50) was greater than 19.1 µM in experiment [1], greater than 24.4 µM in experiment [2] and 15.1 µM in experiment [3].
Consider `Cc1cnc2nc(-c3cc(NC(=O)c4ccc(S(C)(=O)=O)cc4Cl)ccc3Cl)[nH]c2c1` [Compound 110], for which the concentration for a half-maximal effect (EC50) in experiment [1] is 23.8 µM; in experiment [2] it was greater than 25 µM; in experiment [3] it was greater than 13.6 µM.
Take `Cc1cnc2nc(-c3cc(NC(=O)C(C)(C)NC(=O)OC(C)(C)C)ccc3Cl)[nH]c2c1` [Compound 111]: the half-maximal effective concentration (EC50) in experiment [1] was greater than 50 µM; in experiment [2], greater than 25 µM; in experiment [3], greater than 13.6 µM.
For the compound `Cc1cnc2nc(-c3cc(NC(=O)CNC(=O)OC(C)(C)C)ccc3Cl)[nH]c2c1` [Compound 112], the EC50 in experiment [1] is greater than 50 µM; in experiment [2] it was greater than 25 µM; in experiment [3], greater than 24.1 µM.
The like results for `Cc1cnc2nc(-c3cc(NC(=O)c4cocn4)ccc3Cl)[nH]c2c1` [Compound 113] were, in that order, 26.4 µM, 15.3 µM and 1.68 µM.
With `Cc1cnc2nc(-c3cc(NC(=O)Cc4ccc(F)cc4F)ccc3Cl)[nH]c2c1` [Compound 114], the EC50 is greater than 41.5 µM in experiment [1], greater than 25 µM in experiment [2] and greater than 11.9 µM in experiment [3].
Turning to `Cc1cnc2nc(-c3cc(NC(=O)c4ccc(C(F)(F)F)cn4)ccc3Cl)[nH]c2c1` [Compound 115], the results for the EC50 in experiment [1], in experiment [2] and in experiment [3] were 25.3 µM, 16.8 µM and 2.6 µM, respectively.
Take `Cc1cnc2nc(-c3cc(NC(=O)CN)ccc3Cl)[nH]c2c1` [Compound 116]: the figures for the EC50 in experiment [1], in experiment [2] and in experiment [3] were greater than 50 µM, greater than 25 µM and greater than 25 µM, respectively.
Turning to `Cc1cnc2nc(-c3cc(NC(=O)C4CC(F)(F)C4)ccc3Cl)[nH]c2c1` [Compound 117], the concentration for a half-maximal effect (EC50) in experiment [1] was greater than 50 µM; in experiment [2], greater than 25 µM; in experiment [3] it was greater than 13.5 µM.
Regarding `Cc1cnc2nc(-c3cc(NC(=O)C4CCC4)ccc3Cl)[nH]c2c1` [Compound 118], the values for the EC50 in experiment [1], in experiment [2] and in experiment [3] were 21.8 µM, 11.1 µM and 3.2 µM, respectively.
The like results for `Cc1cnc2nc(-c3cc(NC(=O)C(C)c4ccc(F)cc4)ccc3Cl)[nH]c2c1` (stereo not drawn) [Compound 119] were, in that order, 24.2 µM, greater than 25 µM and greater than 16.2 µM.
The like results for `Cc1cnc2nc(-c3cc(NC(=O)COc4ccccc4)ccc3Cl)[nH]c2c1` [Compound 120] were, in that order, greater than 50 µM, greater than 25 µM and 10.5 µM.
The like results for `Cc1cnc2nc(-c3cc(NC(=O)Cc4ccc(OC(F)(F)F)cc4)ccc3Cl)[nH]c2c1` [Compound 121] were, in that order, greater than 21.2 µM, greater than 25 µM and greater than 17.3 µM.
For the compound `Cc1cnc2nc(-c3cc(NC(=O)Cn4cncn4)ccc3Cl)[nH]c2c1` [Compound 122], the concentration for a half-maximal effect (EC50) in experiment [1] is greater than 50 µM; in experiment [2], greater than 25 µM; in experiment [3], greater than 25 µM.
Consider `Cc1cnc2nc(-c3cc(NC(=O)C4Cc5ccccc5O4)ccc3Cl)[nH]c2c1` (stereo not drawn) [Compound 123], for which the EC50 in experiment [1] is greater than 50 µM; in experiment [2] it was 20.3 µM; in experiment [3], 4.1 µM.
For `Cc1cnc2nc(-c3cc(NC(=O)C4(C)CN(C(=O)OC(C)(C)C)C4)ccc3Cl)[nH]c2c1` [Compound 133], the values for the EC50 in experiment [1], in experiment [2] and in experiment [3] were greater than 50 µM, greater than 25 µM and greater than 25 µM, respectively.
On to `Cc1cnc2nc(-c3cc(NC(=O)c4oc(C)nc4C)ccc3Cl)[nH]c2c1` [Compound 139], for which the EC50 in experiment [1] amounted to 25.8 µM; in experiment [2] it was 1.06 µM; in experiment [3] it was 0.33 µM.
Consider `Cc1cnc2nc(-c3cc(NC(=O)c4cccc(S(C)(=O)=O)c4)ccc3Cl)[nH]c2c1` [Compound 140], for which the values for the EC50 in experiment [1], in experiment [2] and in experiment [3] were greater than 50 µM, greater than 25 µM and 6.8 µM, respectively.
As for `Cc1cnc2nc(-c3cc(NC(=O)C(c4ccc(Cl)cc4)C(C)C)ccc3Cl)[nH]c2c1` (stereo not drawn) [Compound 141], the values for the 50% effective concentration (EC50) in experiment [1], in experiment [2] and in experiment [3] were 9.7 µM, 13.9 µM and 6.2 µM, respectively.
The like results for `Cc1cnc2nc(-c3cc(NC(=O)Cc4ccc(F)c(F)c4)ccc3Cl)[nH]c2c1` [Compound 142] were, in that order, 20.7 µM, greater than 25 µM and greater than 14 µM.
The like results for `Cc1cnc2nc(-c3cc(NC(=O)CCO)ccc3Cl)[nH]c2c1` [Compound 143] were, in that order, greater than 50 µM, greater than 25 µM and greater than 14.4 µM.
Regarding `Cc1cnc2nc(-c3cc(NC(=O)Cc4ccc(Cl)cc4)ccc3Cl)[nH]c2c1` [Compound 144], the concentration giving a half-maximal response (EC50) in experiment [1] was 26 µM; in experiment [2], greater than 25 µM; in experiment [3], greater than 11.3 µM.
Taken in the same sequence, the figures for `Cc1cnc2nc(-c3cc(NC(=O)Cc4ncccn4)ccc3Cl)[nH]c2c1` [Compound 145] were greater than 50 µM, greater than 25 µM and 16.1 µM.
The like results for `Cc1cnc2nc(-c3cc(NC(=O)Cc4onc5ccccc45)ccc3Cl)[nH]c2c1` [Compound 146] were, in that order, 21.7 µM, greater than 25 µM and greater than 14.2 µM.
`Cc1cnc2nc(-c3cc(NC(=O)c4ccno4)ccc3Cl)[nH]c2c1` [Compound 155]: the figures for the EC50 in experiment [1], in experiment [2] and in experiment [3] were greater than 39.7 µM, 7.2 µM and 4.3 µM, respectively.
The like results for `COc1ccc(CC(=O)Nc2ccc(Cl)c(-c3nc4ncc(C)cc4[nH]3)c2)cc1` [Compound 156] were, in that order, 27.2 µM, greater than 25 µM and greater than 14.2 µM.
The like results for `Cc1cnc2nc(-c3cc(NC(=O)c4cc[nH]n4)ccc3Cl)[nH]c2c1` [Compound 157] were, in that order, greater than 34.6 µM, greater than 25 µM and 12.8 µM.
Regarding `Cc1cnc2nc(-c3cc(NC(=O)c4cc(C5CC5)n[nH]4)ccc3Cl)[nH]c2c1` [Compound 158], the EC50 in experiment [1] is greater than 50 µM; in experiment [2] it was greater than 25 µM; in experiment [3], 13 µM.
In the case of `Cc1cnc2nc(-c3cc(NC(=O)CCCN(C)C)ccc3Cl)[nH]c2c1` [Compound 159], the half-maximal effective concentration (EC50) is greater than 50 µM in experiment [1], greater than 25 µM in experiment [2] and greater than 12.2 µM in experiment [3].
As for `Cc1cnc2nc(-c3cc(NC(=O)C(c4ccccc4)C(C)C)ccc3Cl)[nH]c2c1` (stereo not drawn) [Compound 160], the concentration for a half-maximal effect (EC50) in experiment [1] is 20.3 µM; in experiment [2], greater than 24.6 µM; in experiment [3], 12.4 µM.
The like results for `Cc1cnc2nc(-c3cc(NC(=O)c4noc(C)n4)ccc3Cl)[nH]c2c1` [Compound 161] were, in that order, greater than 50 µM, greater than 25 µM and 9.6 µM.
The like results for `Cc1cnc2nc(-c3cc(NC(=O)c4ccc(C(F)(F)F)nc4C)ccc3Cl)[nH]c2c1` [Compound 162] were, in that order, greater than 50 µM, greater than 25 µM and 1.23 µM.
Taken in the same sequence, the figures for `Cc1cnc2nc(-c3cc(NC(=O)C4(C)COC4)ccc3Cl)[nH]c2c1` [Compound 163] were greater than 50 µM, greater than 25 µM and greater than 25 µM.
For the compound `Cc1cnc2nc(-c3cc(NC(=O)C(F)(F)c4ccccc4)ccc3Cl)[nH]c2c1` [Compound 164], the results for the EC50 in experiment [1], in experiment [2] and in experiment [3] were 23.4 µM, greater than 25 µM and 12.6 µM, respectively.
